# Data from patent US8148391B2 (Cephalon, Inc., priority 2006, dated 2012).
# Read-outs that look alike come from different tables or passages of the source.
# Tests used:
# [1] = target: T1, baculovirus-expressed ALK (Homo sapiens, UniProt Q9UM73); experiment: ALK Kinase Assay (ELISA-type, time-resolved fluorescence); assay type: biochemical
# T1 construct: host or cells: baculovirus expression system
# Method in brief: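 Substrate coating: phospholipase C-γ, 10 μg/mL in TBS. Kinase step: 30 ng/ml ALK, 15 min, 37° C. Detection and analysis: Eu-N1 PT66 antibody, with IC50 fitted as a sigmoidal variable-slope dose-response curve.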
# [2] = target: T2, c-Met (cytoplasmic domain) (Homo sapiens, UniProt P08581); experiment: c-Met Kinase Assay (same methods as for ALK, with modifications); assay type: biochemical
# T2 construct: 10 ng/mL c-Met (cytoplasmic domain, Invitrogen Corporation #PV3143); purchased Invitrogen Corporation PV3143
# T2 sequence (P08581 956-1390 limits assumed): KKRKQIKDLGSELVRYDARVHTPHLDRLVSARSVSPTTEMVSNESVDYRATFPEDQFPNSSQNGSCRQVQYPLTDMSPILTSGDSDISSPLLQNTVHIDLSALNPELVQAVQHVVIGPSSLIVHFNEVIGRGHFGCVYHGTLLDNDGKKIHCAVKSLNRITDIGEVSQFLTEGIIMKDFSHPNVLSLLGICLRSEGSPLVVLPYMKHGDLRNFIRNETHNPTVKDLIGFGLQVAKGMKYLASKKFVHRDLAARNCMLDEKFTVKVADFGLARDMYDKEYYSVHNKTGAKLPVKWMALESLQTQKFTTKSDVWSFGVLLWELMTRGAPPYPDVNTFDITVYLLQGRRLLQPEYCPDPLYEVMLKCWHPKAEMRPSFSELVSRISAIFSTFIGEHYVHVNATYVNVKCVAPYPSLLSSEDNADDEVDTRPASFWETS
# Method in brief: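 Wells were coated with 10 μg/mL phospholipase C-γ substrate in TBS, and reactions were started with 10 ng/mL c-Met cytoplasmic domain and run at 37° C for 15 minutes. Phosphorylated product was detected with Eu-N1-labeled PT66 antibody. IC50 values came from sigmoidal variable-slope fits of percent inhibition versus log compound concentration.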
# [3] = ALK kinase inhibition, 1 μM ATP (Km level), read-out: ALK Activity
# [4] = c-Met kinase inhibition, 1 μM ATP (Km level), read-out: cMet Activity
# [5] = 1 μM ATP (Km level), 30 ng/ml ALK, 37° C., 15 minutes, read-out: ALK Activity (ALK kinase inhibition, IC50 class)
# [6] = 1 μM ATP (Km level), 10 ng/mL c-Met, read-out: cMet Activity (c-Met kinase inhibition, IC50 class)
# [7] = ALK kinase inhibition, 1 μM ATP, read-out: ALK Activity
# [8] = c-Met kinase inhibition, 1 μM ATP, read-out: cMet Activity
# [9] = 1 μM ATP (Km level), read-out: ALK Activity (ALK Kinase Inhibition, IC50)
# [10] = 1 μM ATP (Km level), read-out: cMet Activity (c-Met Kinase Inhibition, IC50)
# T1 sequence (Q9UM73 19-1620): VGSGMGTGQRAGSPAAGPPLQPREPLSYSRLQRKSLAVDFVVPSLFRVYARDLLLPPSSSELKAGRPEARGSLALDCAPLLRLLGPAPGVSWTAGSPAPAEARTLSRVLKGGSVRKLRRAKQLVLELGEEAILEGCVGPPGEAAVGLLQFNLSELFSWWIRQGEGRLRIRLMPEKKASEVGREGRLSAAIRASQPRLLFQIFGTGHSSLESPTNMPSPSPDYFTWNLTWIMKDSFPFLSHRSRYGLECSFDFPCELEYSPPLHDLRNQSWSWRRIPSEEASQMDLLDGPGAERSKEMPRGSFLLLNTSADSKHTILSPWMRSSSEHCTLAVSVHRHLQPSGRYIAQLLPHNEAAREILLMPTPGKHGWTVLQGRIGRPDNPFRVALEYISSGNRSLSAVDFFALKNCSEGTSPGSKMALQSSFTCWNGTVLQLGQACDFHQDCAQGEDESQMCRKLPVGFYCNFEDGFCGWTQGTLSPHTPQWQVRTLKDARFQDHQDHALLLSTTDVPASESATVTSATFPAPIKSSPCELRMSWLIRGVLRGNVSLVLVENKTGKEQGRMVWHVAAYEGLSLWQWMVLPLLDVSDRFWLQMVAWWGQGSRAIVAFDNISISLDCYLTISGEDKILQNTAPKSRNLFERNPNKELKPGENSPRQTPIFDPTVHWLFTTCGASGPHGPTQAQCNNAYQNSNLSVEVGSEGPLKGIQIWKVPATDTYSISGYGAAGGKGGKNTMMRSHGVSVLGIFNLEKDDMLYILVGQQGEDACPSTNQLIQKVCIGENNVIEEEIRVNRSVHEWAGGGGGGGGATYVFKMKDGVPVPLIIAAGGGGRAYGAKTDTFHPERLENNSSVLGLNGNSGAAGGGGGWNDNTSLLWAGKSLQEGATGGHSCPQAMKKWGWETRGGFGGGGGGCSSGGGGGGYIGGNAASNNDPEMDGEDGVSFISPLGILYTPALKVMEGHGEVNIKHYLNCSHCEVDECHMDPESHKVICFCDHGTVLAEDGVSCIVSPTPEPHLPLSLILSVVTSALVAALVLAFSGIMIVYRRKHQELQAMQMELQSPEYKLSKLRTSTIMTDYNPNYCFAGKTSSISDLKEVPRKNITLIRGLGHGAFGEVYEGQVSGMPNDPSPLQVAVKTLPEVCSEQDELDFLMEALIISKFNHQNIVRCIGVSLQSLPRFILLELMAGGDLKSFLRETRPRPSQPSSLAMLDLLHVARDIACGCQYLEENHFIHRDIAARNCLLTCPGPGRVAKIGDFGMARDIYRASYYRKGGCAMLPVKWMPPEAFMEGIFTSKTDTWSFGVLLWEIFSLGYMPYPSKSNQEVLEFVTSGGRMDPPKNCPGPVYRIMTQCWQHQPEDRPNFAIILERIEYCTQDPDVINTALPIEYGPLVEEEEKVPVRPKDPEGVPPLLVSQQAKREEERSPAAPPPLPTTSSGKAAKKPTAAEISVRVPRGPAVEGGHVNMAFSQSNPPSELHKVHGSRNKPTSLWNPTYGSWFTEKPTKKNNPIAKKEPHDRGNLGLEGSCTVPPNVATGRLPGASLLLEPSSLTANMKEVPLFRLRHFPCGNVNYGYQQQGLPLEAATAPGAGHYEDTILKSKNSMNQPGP
compound,measurement,setting,value
"CCN1C(=O)CCCc2ccc(Nc3ncc(Cl)c(Nc4c(F)cccc4C(=O)NC)n3)cc21 [Example 358, 2-[5-Chloro-2-(1-ethyl-2-oxo-2,3,4,5-tetrahydro-1H-benzo[b]azepin-8-ylamino)pyrimidin-4-ylamino]-3-fluoro-N-methyl-benzamide]",IC50,[1]; [3],< 0.1 µM
same,IC50,[2]; [4],< 0.1 µM
"COc1cc2c(cc1Nc1ncc(Cl)c(Nc3ccccc3S(=O)(=O)N(C)C)n1)CCN(C(=O)CN1CCOCC1)CC2 [Example 1192, 2-{5-Chloro-2-[8-methoxy-3-(2-morpholin-4-yl-acetyl)-2,3,4,5-tetrahydro-1H-benzo[d]azepin-7-ylamino]-pyrimidin-4-ylamino}-N,N-dimethyl-benzenesulfonamide]",IC50,[1]; [5],< 0.1 µM
same,IC50,[2]; [6],1 to 10 µM
"CNC(=O)c1cccc(F)c1Nc1nc(Nc2ccc3c(c2)N(C)CCCO3)ncc1Cl [Example 1707, 2-[5-Chloro-2-(9-methyl-6,7,8,9-tetrahydro-5-oxa-9-aza-benzocyclohepten-2-ylamino)-pyrimidin-4-ylamino]-3-fluoro-N-methyl-benzamide]",IC50,[1]; [7],< 0.1 µM
same,IC50,[2]; [8],< 0.1 µM
"CCN1CCc2ccc(Nc3ncc(Cl)c(N[C@@H]4CCCC[C@H]4O)n3)cc2CC1 (relative stereo) [Example 319, trans-2-[5-Chloro-2-(3-ethyl-2,3,4,5-tetrahydro-1H-benzo[d]azepin-7-ylamino)-pyrimidin-4-ylamino]-cyclohexanol]",IC50,[1]; [3],0.1 to 1 µM
same,IC50,[2]; [4],> 10 µM
"CNC(=O)c1ccccc1Nc1nc(Nc2ccc3c(c2)N(C(=O)CN2CCCC2)CCCO3)ncc1Cl [Example 1706, 2-{5-Chloro-2-[9-(2-pyrrolidin-1-yl-acetyl)-6,7,8,9-tetrahydro-5-oxa-9-aza-benzocyclohepten-2-ylamino]-pyrimidin-4-ylamino}-N-methyl-benzamide]",IC50,[1]; [7],0.1 to 1 µM
same,IC50,[2]; [8],0.1 to 1 µM
"CCN1CCN(CC)c2cc(Nc3ncc(Cl)c(Nc4ccccc4-c4nccn4C)n3)ccc2C1 [Example 715, 5-Chloro-N*2*-(1,4-diethyl-2,3,4,5-tetrahydro-1H-benzo[e][1,4]diazepin-8-yl)-N*4*-[2-(1-methyl-1H-imidazol-2-yl)-phenyl]-pyrimidine-2,4-diamine]",IC50,[1]; [9],< 0.1 µM
same,IC50,[2]; [10],0.1 to 1 µM
"COc1cc2c(cc1Nc1ncc(Cl)c(Nc3ccc(N4CCN(C)CC4)cc3OC)n1)CCN(CCS(C)(=O)=O)CC2 [Example 771, 5-Chloro-N*2*-[3-(2-methanesulfonyl-ethyl)-8-methoxy-2,3,4,5-tetrahydro-1H-benzo[d]azepin-7-yl]-N*4*-[2-methoxy-4-(4-methyl-piperazin-1-yl)-phenyl]-pyrimidine-2,4-diamine]",IC50,[1]; [9],< 0.1 µM
same,IC50,[2]; [10],> 10 µM
"CCN1CCc2ccc(Nc3ncc(Cl)c(N[C@@H]4CCCC[C@H]4NC(C)=O)n3)cc2CC1 [Example 445, N-{(1R,2R)-2-[5-Chloro-2-(3-ethyl-2,3,4,5-tetrahydro-1H-benzo[d]azepin-7-ylamino)-pyrimidin-4-ylamino]-cyclohexyl}-acetamide]",IC50,[1]; [3],< 0.1 µM
same,IC50,[2]; [4],< 0.1 µM
"COCCN1CCc2ccc(Nc3ncc(Cl)c(Nc4ccccc4-n4cccn4)n3)cc2CC1 [Example 316, 5-Chloro-N*2*-[3-(2-methoxy-ethyl)-2,3,4,5-tetrahydro-1H-benzo[d]azepin-7-yl]-N*4*-(2-pyrazol-1-yl-phenyl)-pyrimidine-2,4-diamine]",IC50,[1]; [3],< 0.1 µM
same,IC50,[2]; [4],0.1 to 1 µM
"CCN1CCCC(C)(C)c2ccc(Nc3ncc(Cl)c(Nc4c(F)cccc4C(=O)NC)n3)cc21 [Example 1632, 2-[5-Chloro-2-(1-ethyl-5,5-dimethyl-2,3,4,5-tetrahydro-1H-benzo[b]azepin-8-ylamino)-pyrimidin-4-ylamino]-3-fluoro-N-methyl-benzamide]",IC50,[1]; [7],0.1 to 1 µM
same,IC50,[2]; [8],0.1 to 1 µM
"CN1CCN(CC2CC2)Cc2ccc(Nc3ncc(Cl)c(N[C@@H]4CCCC[C@H]4NS(C)(=O)=O)n3)cc21 [Example 479, N-{(1R,2R)-2-[5-Chloro-2-(4-cyclopropylmethyl-1-methyl-2,3,4,5-tetrahydro-1H-benzo[e][1,4]diazepin-8-ylamino)-pyrimidin-4-ylamino]-cyclohexyl}-methanesulfonamide]",IC50,[1]; [3],< 0.1 µM
same,IC50,[2]; [4],1 to 10 µM
"CNC(=O)CN1CCc2cc(Nc3ncc(Cl)c(Nc4c(F)cccc4C(=O)NC)n3)c(OC)cc2CC1 [Example 1116, 2-[5-Chloro-2-(8-methoxy-3-methylcarbamoylmethyl-2,3,4,5-tetrahydro-1H-benzo[d]azepin-7-ylamino)-pyrimidin-4-ylamino]-3-fluoro-N-methyl-benzamide]",IC50,[1]; [5],< 0.1 µM
same,IC50,[2]; [6],1 to 10 µM
"COc1cc(N2CCOCC2)ccc1Nc1nc(Nc2cccc3c2OCCCC3(C)C)ncc1Cl [Example 876, 5-Chloro-N*2*-(5,5-dimethyl-2,3,4,5-tetrahydro-benzo[b]oxepin-9-yl)-N*4*-(2-methoxy-4-morpholin-4-yl-phenyl)-pyrimidine-2,4-diamine]",IC50,[1]; [9],0.1 to 1 µM
same,IC50,[2]; [10],> 10 µM
"CCN1C(=O)CCCc2cc(Nc3ncc(Cl)c(Nc4ccc(OC)cc4-n4cccn4)n3)c(OC)cc21 [Example 614, 7-[5-Chloro-4-(4-methoxy-2-pyrazol-1-yl-phenylamino)-pyrimidin-2-ylamino]-1-ethyl-8-methoxy-1,3,4,5-tetrahydro-benzo[b]azepin-2-one]",IC50,[1]; [9],< 0.1 µM
same,IC50,[2]; [10],> 10 µM
"CNC(=O)c1sccc1Nc1nc(Nc2ccc3c(c2)NC(=O)CCC3)ncc1Cl [Example 1477, 3-[5-Chloro-2-(2-oxo-2,3,4,5-tetrahydro-1H-benzo[b]azepin-8-ylamino)-pyrimidin-4-ylamino]-thiophene-2-carboxylic acid methylamide]",IC50,[1]; [7],0.1 to 1 µM
same,IC50,[2]; [8],0.1 to 1 µM
"CCNC(=O)c1ccccc1Nc1nc(Nc2cc3c(cc2OC)CCN(CC(=O)N(C)C)CC3)ncc1Cl [Example 262, 2-[5-Chloro-2-(3-dimethylcarbamoylmethyl-8-methoxy-2,3,4,5-tetrahydro-1H-benzo[d]azepin-7-ylamino)-pyrimidin-4-ylamino]-N-ethyl-benzamide]",IC50,[1]; [3],< 0.1 µM
same,IC50,[2]; [4],1 to 10 µM
"COc1cc2c(cc1Nc1ncc(Cl)c(Nc3ccccc3S(=O)(=O)N3CC[C@@H](O)C3)n1)CCN(C[C@@H](C)O)CC2 [Example 1557, (R)-1-(2-{5-Chloro-2-[3-((R)-2-hydroxy-propyl)-8-methoxy-2,3,4,5-tetrahydro-1H-3-benzazepin-7-ylamino]-pyrimidin-4-ylamino}-benzenesulfonyl)-pyrrolidin-3-ol]",IC50,[1]; [7],< 0.1 µM
same,IC50,[2]; [8],> 10 µM
"CNC(=O)c1scc(C)c1Nc1nc(Nc2ccc3c(c2)CCN(CCOC)CC3)ncc1Cl [Example 1362, 3-{5-Chloro-2-[3-(2-methoxy-ethyl)-2,3,4,5-tetrahydro-1H-benzo[d]azepin-7-ylamino]-pyrimidin-4-ylamino}-4-methyl-thiophene-2-carboxylic acid methylamide]",IC50,[1]; [5],0.1 to 1 µM
same,IC50,[2]; [6],< 0.1 µM
"CCN1CCOc2cc(Nc3ncc(Cl)c(Nc4ccccc4C(=O)NC)n3)ccc2C1=O [Example 515, 2-[5-Chloro-2-(4-ethyl-5-oxo-2,3,4,5-tetrahydro-benzo[f][1,4]oxazepin-8-ylamino)-pyrimidin-4-ylamino]-N-methyl-benzamide]",IC50,[1]; [9],< 0.1 µM
same,IC50,[2]; [10],< 0.1 µM
"COc1cc(N2CCOCC2)ccc1Nc1nc(Nc2ccc3c(c2)CCN(C[C@@H](O)C(F)(F)F)CC3)ncc1Cl [Example 333, (R)-3-{7-[5-Chloro-4-(2-methoxy-4-morpholin-4-yl-phenylamino)-pyrimidin-2-ylamino]-1,2,4,5-tetrahydro-benzo[d]azepin-3-yl}-1,1,1-trifluoro-propan-2-ol]",IC50,[1]; [3],< 0.1 µM
same,IC50,[2]; [4],1 to 10 µM
"C#CCN1CC2CCC(C1)c1cc(Nc3ncc(Cl)c(Nc4ccccc4S(=O)(=O)N(C)CC#C)n3)ccc12 (stereo not drawn) [Example 288, 2-[5-Chloro-2-(10-prop-2-ynyl-10-aza-tricyclo[6.3.2.0*2,7*]trideca-2,4,6-trien-4-ylamino)-pyrimidin-4-ylamino]-N-methyl-N-prop-2-ynyl-benzenesulfonamide]",IC50,[1]; [3],< 0.1 µM
same,IC50,[2]; [4],0.1 to 1 µM
"2-{5-Chloro-2-[1-methoxy-7-(4-methyl-piperazin-1-yl)-6,7,8,9-tetrahydro-5H-benzocyclohepten-2-ylamino]-pyrimidin-4-ylamino}-N,N-dimethyl-benzenesulfonamide [Example 912]",IC50,[1]; [9],< 0.1 µM
same,IC50,[2]; [10],> 10 µM
"COCCN1CCc2ccc(OC)c(Nc3ncc(Cl)c(N[C@H]4[C@@H](C(N)=O)[C@@H]5C=C[C@H]4C5)n3)c2CC1 (relative stereo) [Example 245, (2-exo,3-exo)-3-{5-Chloro-2-[7-methoxy-3-(2-methoxy-ethyl)-2,3,4,5-tetrahydro-1H-benzo[d]azepin-6-ylamino]-pyrimidin-4-ylamino}-bicyclo[2.2.1]hept-5-ene-2-carboxylic acid amide]",IC50,[1]; [3],1 to 10 µM
same,IC50,[2]; [4],> 10 µM
"COc1c(Nc2ncc(Cl)c(Nc3ccccc3S(=O)(=O)N3CCCC3)n2)ccc2c1CCC(N1CCCC(O)C1)CC2 (mixture of isomers) [Example 908, 1-(2-{5-Chloro-4-[2-(pyrrolidine-1-sulfonyl)-phenylamino]-pyrimidin-2-ylamino}-1-methoxy-6,7,8,9-tetrahydro-5H-benzocyclohepten-7-yl)-piperidin-3-ol]",IC50,[1]; [9],< 0.1 µM
same,IC50,[2]; [10],1 to 10 µM
